Results on one compound are retold here after ChEMBL document CHEMBL1127324, “Solid-state and solution conformations of the potent HIV inhibitor, 4'-azidothymidine” (J Med Chem, 1994).

The test has as its system Human immunodeficiency virus. The test can be described thus: In vitro inhibitory activity against HIV was determined. It counts as functional, organism-based. To be noted: Human immunodeficiency virus 1.

Structures are written as SMILES.

Turning to `Cc1cn([C@H]2C[C@H](O)[C@](CO)(N=[N+]=[N-])O2)c(=O)[nH]c1=O`, half-maximal inhibition (IC50) was put at 10 nM.
